Laboratory results as given in patent US8961946B2, “Hair processing agent and method for permanent waving hair” (Showa Denko K.K., priority 2004, dated 2015).
Structures can show the parent of a compound that is named as a salt.

Experiment: Waving efficiency at various pH, compounds (i) and (ii) tested singly (FIG. 1)
Settings: agent contains the compound at 2% by mass in terms of thioglycolic acid
Description: The hair processing agents tested herein contain the compound at 2% by mass in terms of thioglycolic acid. […] Consequently, the compounds (i) and (ii) in combination provide a permanent waving performance over a wide pH range.

SMILES	Changes of waving efficiency at various pH (FIG. 1)
O=C1OCCC1S (centres unmarked) [Synthetic Example 1, 2-mercapto-4-butyrolactone]	high waving efficiency in an acidic to neutral pH range
NCCS [compound (ii), cysteamine hydrochloride]	low waving efficiency at acidic pH, but the waving efficiency linearly increases with the pH increase
